How the values were obtained:
Type in all cases: functional
Conditions in all cases: read-out: DIZ
[1] = test system: Burkholderia thailandensis; test: Antibacterial activity against Burkholderia thailandensis at 0.5 mM by Kirby Bauer disk diffusion method
[2] = test system: Pseudomonas aeruginosa; test: Antibacterial activity against Pseudomonas aeruginosa at 0.5 mM by Kirby Bauer disk diffusion method
[3] = test system: Bacillus cereus; test: Antibacterial activity against Bacillus cereus at 0.5 mM by Kirby Bauer disk diffusion method
[4] = test system: Escherichia coli; test: Antibacterial activity against Escherichia coli at 0.5 mM by Kirby Bauer disk diffusion method
[5] = test system: Mycolicibacterium smegmatis; test: Antibacterial activity against Mycobacterium smegmatis at 0.5 mM by Kirby Bauer disk diffusion method
[6] = test system: Klebsiella pneumoniae; test: Antibacterial activity against Klebsiella pneumoniae at 0.5 mM by Kirby Bauer disk diffusion method
[7] = test system: Corynebacterium xerosis; test: Antibacterial activity against Corynebacterium xerosis at 0.5 mM by Kirby Bauer disk diffusion method
[8] = test system: Corynebacterium pseudodiphtheriticum; test: Antibacterial activity against Corynebacterium pseudodiphtheriticum at 0.5 mM by Kirby Bauer disk diffusion method
[9] = test system: Micrococcus luteus; test: Antibacterial activity against Micrococcus luteus at 0.5 mM by Kirby Bauer disk diffusion method

Row | Structure (SMILES) | zone of inhibition at 500 µM [1] [mm] | zone of inhibition at 500 µM [2] [mm] | zone of inhibition at 500 µM [3] [mm] | zone of inhibition at 500 µM [4] [mm] | zone of inhibition at 500 µM [5] [mm] | zone of inhibition at 500 µM [6] [mm] | zone of inhibition at 500 µM [7] [mm] | zone of inhibition at 500 µM [8] [mm] | zone of inhibition at 500 µM [9] [mm]
1 | CCOC(=O)c1cnc(Nc2ccc(-c3ccccc3)cc2)nc1O | 0 | 0 | 11 | 0 | 0 | 0 | 0 | 0 | 0
2 | CCOC(=O)c1cnc(Nc2ccc(CC(=O)O)cc2)nc1O | 8 | 0 | 11 | 10 | 0 | 9 | 0 | 0 | 0
3 | O=C(O)c1cnc(NCCc2ccncc2)nc1O | 10 | 0 |  |  |  |  |  |  | 
4 | CCOC(=O)c1cnc(NCc2cccc(Cl)c2)nc1O | 11 | 0 | 0 | 0 | 14 | 0 | 0 | 0 | 0
5 | CCOC(=O)c1cnc(NCCc2ccccc2Cl)nc1O | 12 | 0 | 9 | 0 | 15 | 0 | 0 | 0 | 0
6 | O=C(O)c1cnc(NCc2ccc(Cl)cc2)nc1O | 11 | 15 | 14 | 14 | 15 | 9 | 0 | 0 | 0
7 | CCOC(=O)c1cnc(NCCc2cccc(F)c2)nc1O | 0 | 0 | 0 | 0 | 0 | 0 | 0 | 0 | 0
8 | CCOC(=O)c1cnc(NCc2cc(Cl)ccc2Cl)nc1O | 9 | 0 | 13 | 0 | 0 | 0 | 0 | 0 | 14
9 | CCOC(=O)c1cnc(Nc2ccc(N3CCCCC3)cc2)nc1O | 14 | 13 | 15 | 19 | 16 | 13 | 0 | 0 | 0
10 | O=C(O)c1cnc(Nc2ccc(Br)cc2)nc1O | 13 | 0 | 12 | 15 | 17 | 12 | 16 | 16 | 0
11 | O=C(O)c1cnc(NCc2ccc(Cl)nc2)nc1O | 12 | 10 |  |  |  |  |  |  | 
12 | Nc1ccc(C(=O)O)c(O)c1 [AMINOSALICYLIC ACID] | 12 | 0 | 9 | 11 | 14 | 0 | 0 | 0 | 0
13 | CCOC(=O)c1cnc(NCc2ccc(F)cc2)nc1O | 8 | 0 | 19 | 0 | 0 | 0 | 0 | 0 | 0
14 | O=C(O)c1cnc(NCc2ccc(F)cc2)nc1O | 12 | 0 | 12 | 0 | 0 | 0 | 0 | 0 | 0
15 | CCOC(=O)c1cnc(NCCc2ccc(Cl)cc2Cl)nc1O | 11 | 0 | 0 | 0 | 0 | 0 | 0 | 0 | 0
16 | CCOC(=O)c1cnc(NCc2ccc(Cl)nc2)nc1O | 9 | 0 | 10 |  |  |  |  |  | 
17 | CCOC(=O)c1cnc(NCCc2ccc(Cl)cc2)nc1O | 0 | 0 | 7 |  |  |  |  |  | 
18 | O=C(O)c1cnc(Nc2ccc3[nH]ncc3c2)nc1O | 10 | 0 | 7 | 0 | 14 | 0 | 0 | 0 | 0
19 | O=C(O)c1cnc(Nc2ccc3cn[nH]c3c2)nc1O | 0 | 0 | 9 | 0 | 16 | 9 | 0 | 0 | 0
20 | O=C(O)c1cnc(NCC2CCCO2)nc1O (stereo unspecified) | 7 | 0 | 0 | 0 | 0 | 0 | 0 | 0 | 0
21 | O=C(O)c1cnc(NCCc2ccc(Cl)cc2)nc1O | 12 | 19 |  | 0 | 14 | 0 | 0 | 0 | 0
22 | CCOC(=O)c1cnc(NCCc2ccncc2)nc1O | 4 | 0 | 8 |  |  |  |  |  | 
23 | CCOC(=O)c1cnc(NCCc2ccccn2)nc1O | 0 | 0 | 8 |  |  |  |  |  | 
24 | CCOC(=O)c1cnc(Nc2ccc(I)cc2)nc1O | 0 | 0 | 13 |  |  |  |  |  | 

From ChEMBL document CHEMBL4304805, “Antibacterial activity of 2-amino-4-hydroxypyrimidine-5-carboxylates and binding to Burkholderia pseudomallei 2-C-methyl-d-erythritol-2,4-cyclodiphosphate synthase” (Bioorg Med Chem Lett, 2019)
